Experimental data reported in paper PMC8956739, “A synthetic lipopeptide targeting top-priority multidrug-resistant Gram-negative pathogens” (Nature Communications, 2022).
“And” between values parts separate entries of the source, which are not always exact repeats. Equal entries are not always repeated. Where two headings read alike, the source gives them in different places. Residues, ends and D or L forms follow the SMILES beside them.

Columns and labels:
Swiss mice, kidney = test: Nephrotoxicity in mice (kidney histopathology); assay type: in vivo, mouse; settings: for Kidney histopathology (SQS Score): 72 mg/kg/d subcutaneously in six divided doses every 2 h, n = 3
In short: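 Female Swiss mice (7-week-old, 22–28 g) received lipopeptides in saline either s.c. at 12 mg/kg ×6 every 2 h (total 72 mg/kg, n = 3) or i.p. at 20 or 25 mg/kg ×6 every 2 h (total 120 mg/kg, n = 6; 150 mg/kg, n = 3). Right kidney collected 20 h after last dose, fixed in 10% buffered formalin (pH 7.4), histology scored blinded.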

Swiss mice = test: Acute toxicity in mice (maximum tolerated dose, IV bolus); assay type: in vivo, mouse; settings: for MTD, single replicate: replicates 1-4
Description: Lipopeptide solutions were prepared in 0.9% saline and stored at 4 °C before use. Swiss mice (female, 7-week-old, 22–28 g) were used in the study. A mouse was administered an intravenous bolus of the lipopeptide (mg/kg free base) through a lateral tail vein (≤0.1 mL). After the injection, the mouse was released back into the cage and monitored for clinical signs of toxicity from 0 to 24 h after injection as follows: every 10 min in the first 2 h, every half hour from 2 to 4 h, every hour from 4 to 12 h, and every 2 h from 12 to 24 h.

[1] = system: P. aeruginosa FADDI-PA070; assay type: cell-based, Pseudomonas aeruginosa; settings: polymyxin-resistant
In short: (§1)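 Compounds were serially diluted in CaMHB, bacteria were added, and the lowest inhibitory concentration was recorded after broth microdilution testing.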

[2] = system: P. aeruginosa FADDI-PA090; assay type: cell-based, Pseudomonas aeruginosa; settings: polymyxin-resistant
In short: as §1

HK-2 cells = test: Transcriptomic analysis (RNA-Seq) of kidney cells; assay type: cell-based, human; settings: for logFC, differential gene expression for all genes / log2FC / Fold Change: HK-2 RNA-Seq; for log2FC: Fig. 5f; for Fold Change: Fig. 5e; for num.of.degs: number of differentially expressed genes per peptide, Fig. 6a
Description: Human Kidney-2 (HK-2) cells (CRL-2190™, American Type Culture Collection) were treated with 100 μM colistin, F287, F319, and F365 for 24 h. Previous transcriptomic data of HK-2 cells following 24 h treatment with polymyxin B[26] were also employed for comparative bioinformatic analysis. RNA extraction was conducted as described above. Raw reads were aligned to genome GRCh38.94 (Ensembl genome database, http://ftp.ensembl.org/pub/release-94/fasta/homo_sapiens/dna/) using […] and summarized by featureCounts. Differentially expressed genes were determined using limma 3.46.0, with a combination of fold change ≥ 1.5 and FDR (by Benjamini–Hochberg algorithm) adjusted P-value ≤ 0.05 (n = 3). Key regulatory genes of HK-2 were analyzed in the context of signaling network in the Signor 2.0 database. Enrichment analysis of gene differential expression in HK-2 cells was conducted using enrichR 2.1. UpSetR 1.4.0, ComplexHeatmap 2.6.2, circlize 0.4.13 and iGraph 1.2.11 were used for data visualization. Raw data were deposited in the Short Reads Archive database under accession numbers SRR15239061-SRR15239078.

[3] = system: KCNJ16 knockout HK-2 cells; test: Cell viability after 24 h treatment; assay type: cell-based, human; settings: KCNJ16 knockout HK-2 cells, 24 h, Fig. 6b; for Cell viability, KCNJ16 KO, Rep2: replicate 2; for Cell viability, KCNJ16 KO, Rep3: replicate 3; for Cell viability, KCNJ16 KO, Rep4: replicate 4
Description: (§2) Fig. 6 Transcriptomic changes in human kidney proximal tubular HK-2 cells following treatments with polymyxin B (PMB), colistin (COL), F287, F319, and F365. a Numbers of differentially expressed genes. Distinctive intersections are color-coded. b Cell viability difference (two-tailed Student’s t-test, n = 4 biologically independent cells, Benjamini–Hochberg adjusted P-values) between wild-type HK-2 and KCNJ16 knockout (KO) cells following 24 h treatment with lipopeptides. n.s., not significant; ^*adjusted P < 0.05, ^**adjusted P < 0.01, ^***adjusted P < 0.001. Data are shown as mean ± s.d. and individual data points. c Extracted transcriptional regulatory network from Signor database with 1-step neighbor constraints (enlarged for detail). Source data are provided as a Source Data file.

[4] = Cell viability after 24 h treatment; assay type: cell-based, human; settings: human, KCNJ16 knockout HK-2 cells (kidney proximal tubular), Cell viability, KCNJ16 KO, KCNJ16 knockout HK-2 cells, 24 h, Fig. 6b
Description: as §2

[5] = mouse, in vivo, ip, 60 mg/kg/day
[6] = locus chr1 629640-630683 (ENSG00000225630 by coordinates)
[7] = locus chr1 632757-633438 (ENSG00000229344 by coordinates)
[8] = Rep1, replicate 1, read-out: Cell viability, KCNJ16 KO, Rep1
[9] = Rep2, replicate 2, read-out: Cell viability, KCNJ16 KO, Rep2
[10] = Rep3, replicate 3, read-out: Cell viability, KCNJ16 KO, Rep3
[11] = Rep4, replicate 4, read-out: Cell viability, KCNJ16 KO, Rep4

Molecule	Kidney histopathology (SQS Score) (Swiss mice, kidney)	Kidney histopathology, mice with the SQS score (Swiss mice, kidney; mouse, in vivo)	MTD, single replicate (Swiss mice)	logFC, differential gene expression for all genes (HK-2 cells; Geneid ENSG00000223972)	logFC, differential gene expression for all genes (HK-2 cells; Geneid ENSG00000227232)	logFC, differential gene expression for all genes (HK-2 cells; Geneid ENSG00000233750)	logFC, differential gene expression for all genes (HK-2 cells; Geneid ENSG00000278267)	log2FC (HK-2 cells; gene ENSG00000017483 SLC38A5)	log2FC (HK-2 cells; gene ENSG00000023445 BIRC3)	log2FC (HK-2 cells; gene ENSG00000056558 TRAF1)	log2FC (HK-2 cells; gene ENSG00000066468 FGFR2)	Fold Change (HK-2 cells; [6])	Fold Change (HK-2 cells; [7])	num.of.degs (HK-2 cells)	Cell viability, KCNJ16 KO, Rep2 [3]	Cell viability, KCNJ16 KO, Rep3 [3]	Cell viability, KCNJ16 KO, Rep4 [3]	viability at 24 h [4, 8] [%]	viability at 24 h [4, 9] [%]	viability at 24 h [4, 10] [%]	also measured
Polymyxin B [reference compound]	+5 (SQS + 5 = severe damage (overall score, >60))	3/3	7 mg/kg and 5 mg/kg and 4.6 mg/kg	0.4637	-0.07236	-0.3869	-0.4937	0.7953	-0.454	0.6897	-1.758	1.799	1.2	1576	73.0677	75.1154	76.9625				Kidney histological damage (Swiss mice, kidney; [5]): Moderate to severe; Kidney histological damage, mice with the given grade (Swiss mice, kidney; [5]): 6/6; MIC P. aeruginosa FADDI-PA070 [1]: > 32 µg/mL; MIC P. aeruginosa FADDI-PA090 [2]: 4 µg/mL; Fold Change (HK-2 cells; locus chr1 631074-632616 (ENSG00000237973 by coordinates)): 1.271; Cell viability, KCNJ16 KO, Rep1 ([3]; replicate 1): 61.7446
Colistin [reference compound]	+5 (SQS + 5 = severe damage (overall score, >60))	3/3	6 mg/kg and 5.8 mg/kg and 5 mg/kg	-0.6712	-0.1985	-0.899	-0.3433	0.7893	-0.6239	0.6268	-1.3101	0.2606	0.2186	1282	81.0179	91.8189	66.4023				average maximum tolerated dose (MTD) (Swiss mice; single IV bolus dose, n = 4): 5.3 mg/kg
CCCCCCCC(=O)N[C@@H](CCN)C(=O)N[C@H](C(=O)N[C@@H](CCN)C(=O)N[C@H]1CCNC(=O)[C@H]([C@@H](C)O)NC(=O)[C@H](CCN)NC(=O)[C@H](CCN)NC(=O)[C@H](CC)NC(=O)[C@@H](CC(C)C)NC(=O)[C@H](CCN)NC1=O)[C@@H](C)O [Lipopeptide F319] (HELM PEPTIDE1{[CCCCCCCC(=O)[*:2]].[Dab].T.[Dab].[Dab].[Dab].[dL].[Abu].[Dab].[Dab].T}$PEPTIDE1,PEPTIDE1,5:R3-11:R2$$$V2.0)	+1 (SQS + 1 = mild damage (overall score, 1 to <15))	1/3		-0.1551	-0.02116	-0.4424	0.1872	0.557	-0.6344	0.7378	-1.084	0.3467	0.6059	763				104	95.5	91.1	viability at 24 h [4, 11]: 92.6%
CCCCCCCC(=O)N[C@@H](CCN)C(=O)N[C@H](C(=O)N[C@@H](CN)C(=O)N[C@H]1CCNC(=O)[C@H]([C@@H](C)O)NC(=O)[C@H](CCN)NC(=O)[C@H](CCN)NC(=O)[C@H](CC)NC(=O)[C@@H](CC(C)C)NC(=O)[C@H](CCN)NC1=O)[C@@H](C)O [Lipopeptide F287] (HELM PEPTIDE1{[CCCCCCCC(=O)[*:2]].[Dab].T.[NC[C@H](N[*:1])C(=O)[*:2]].[Dab].[Dab].[dL].[Abu].[Dab].[Dab].T}$PEPTIDE1,PEPTIDE1,5:R3-11:R2$$$V2.0)	0 (SQS 0 = no significant change (overall score, <1))	3/3	6.6 mg/kg	-1.073	-0.08434	-0.6124	0.2137	0.6808	-0.3448	0.757	-1.141	0.9406		1076				91.7	77.1	82.8	Kidney histological damage, mice with the given grade (Swiss mice, kidney; mouse, in vivo, ip, 120 mg/kg/day): 2/6; Fold Change (HK-2 cells; locus chr1 629062-629433 (ENSG00000225972 by coordinates)): 0.9117; viability at 24 h [4, 11]: 69.6%
